Values of other authors, collected in US20260083754A1, “CORTICOSTEROID CONTAINING ORALLY DISINTEGRATING TABLET COMPOSITIONS FOR EOSINOPHILIC ESOPHAGITIS” (Ellodi Pharmaceuticals, L.P., priority 2013, published 2026).

Key:
[1] = tested on: adolescent and adult patients with active EoE; conditions: 15-day course, 1 mg twice daily

CCCC1O[C@@H]2C[C@H]3[C@@H]4CCC5=CC(=O)C=C[C@]5(C)[C@H]4[C@@H](O)C[C@]3(C)[C@]2(C(=O)CO)O1 (stereo partly drawn) [budesonide]
tolerability [1]: well tolerated

CCC(=O)O[C@]1(C(=O)SCF)[C@H](C)C[C@H]2[C@@H]3C[C@H](F)C4=CC(=O)C=C[C@]4(C)[C@@]3(F)[C@@H](O)C[C@@]21C [FP, fluticasone propionate]
patients who achieved histologic remission (EoE patients; FP-treated patients, placebo 9%, P=0.047): 50% | esophageal eosinophil levels (EoE patients; more pronounced effect in non-allergic individuals): decreased
